From patent publication US8609100B2, “Method for inhibiting dendritic cell immunoreceptor (DCIR)-mediated human immunodeficiency virus infection comprising administering anti-DCIR antibodies” (Universite Laval, priority 2008, dated 2013) come the findings set out here.

One data set deals with DC-SIGN. In words: DC-SIGN expression in IM-MDDC after DCIR-specific siRNA. The following applies: IM-MDDC transfected with siRNA; data not shown. Type of data set: cell-based, human. The source says: (§1) A ˜30% decrease in surface expression of DCIR in IM-MDDC was observed following the use of DCIR-specific siRNA (FIG. 2).
For a further data set, the system named is IM-MDDC. The class given is cell-based, human.
Excerpt: as §1

In data set [1] the test system is HIV-1 (NL4-3balenv). In words: HIV-1 infection of IM-MDDC: virus production by p24 ELISA. Type of data set: cell-based, human immunodeficiency virus type 1. Particulars: siRNA-transfected IM-MDDC pulsed with NL4-3balenv 20 ng p24 for 2 hrs; FIG. 4C. On the procedure:
HIV-1 infection of IM-MDDC: IM-MDDC (2×10^5 cells in a final volume of 100 μl) either transfected with the studied siRNAs or pre-incubated with the above mentioned polyclonal anti-DCIR were exposed to HIV-1 (20 ng of p24) for 2 hr at 37° C. After three washes with PBS, cells were maintained in complete RPMI-1640 culture medium supplemented with GM-CSF (1,000 U/ml) and IL-4 (200 U/ml) in 96-well plates in a final volume of 200 μl. Every 3 days and for a period lasting 9 days, half of the medium was removed and kept frozen at −20° C. until assayed. Virus production was estimated by measuring p24 levels in culture supernatants by ELISA. […]
In FIG. 4C, IM-MDDC were treated with Oligofectamine and then either left untreated (control) or exposed to a non-specific siRNA and a DCIR-specific siRNA. […] Cell-free culture supernatants were collected at the indicated time points and analyzed for the p24 content. […]
In FIG. 5 left panels, IM-MDDC (2×10^5 cells) were initially treated with either a control Ab or a polyclonal anti-DCIR (10 μg per 1.5×10^5 cells). […] Cell-free culture supernatants were collected at the indicated time points and analyzed for the p24 content. […] Cell-free culture supernatants were collected at day 2 following initiation of the co-culture and analyzed for the p24 content. […]
For orientation: ELISA stands for enzyme-linked immunosorbent assay.

The test system of data set [2] is HIV-1 (NL4-3balenv). In words: HIV-1 transfer assay: virus-pulsed IM-MDDC co-cultured with autologous CD4+ T cells, p24 ELISA. Type of data set: cell-based, human immunodeficiency virus type 1. The method, then: HIV-1 transfer assay: IM-MDDC (10^5 cells in 100 μl) transfected either with the above listed siRNAs or pre-incubated with polyclonal anti-DCIR (10 μg/1.5×10^5 cells) were exposed to HIV-1 (10 ng of p24) for 60 min at 37° C. Next, the virus-cell mixture was washed three times with PBS to remove unadsorbed virions. In some experiments, cells were also treated with the anti-HIV-1 drug EFV (efavirenz) (50 μM). Finally, IM-MDDC were co-cultured with autologous activated CD4^+ T lymphocytes at a 1:3 ratio in complete RPMI-1640 medium supplemented with IL-2 (30 U/ml) in 96-well plates in a final volume of 200 μl. At day 2, virus production was estimated by measuring p24 levels in cell-free culture supernatants by ELISA.
(§2) We next evaluated the transfer of HIV to autologous CD4^+ T cells. To that effect, IM-MDDC (1×10^6 cells) were treated with Oligofectamine and then either left untreated (control) or exposed to a non-specific siRNA and a DCIR-specific siRNA. Next, cells (1×10^5) were pulsed with NL4-3balenv (10 ng of p24) for 60 min at 37° C. After three washes with PBS to eliminate unbound virus, IM-MDDC were co-cultured with autologous CD4^+ T cells at a 1:3 ratio. Cell-free culture supernatants were collected at day 2 following initiation of the co-culture and analyzed for the p24 content. Data shown in FIG. 3 represent the means±SD of triplicate samples from three combined independent experiments. Asterisks denote statistically significant data (***, P<0.001).
as §2, with “In FIG. 4A,” for “We next evaluated the transfer of HIV to autologous CD4^+ T cells. To that effect,”, “were either left untreated or treated with EFV. IM-MDDC (2×10^5 cells)” for “(1×10^5)”, “(20” for “(10”, “shown” for “shown in FIG. 3”, “two different donors and are representative of four separate donors.” for “three combined independent experiments.”, “(*, P<0.05, **, P<0.01).” for “(***, P<0.001).”
In FIG. 5 left panels, IM-MDDC (2×10^5 cells) were initially treated with either a control Ab or a polyclonal anti-DCIR (10 μg per 1.5×10^5 cells). Next, cells were extensively washed to eliminate excess Ab and pulsed with NL4-3balenv (20 ng of p24) for 2 hrs at 37° C. […] Cell-free culture supernatants were collected at the indicated time points and analyzed for the p24 content. […] Cell-free culture supernatants were collected at day 2 following initiation of the co-culture and analyzed for the p24 content. […]

Another data set deals with DCIR. In words: DCIR surface expression in siRNA-transfected IM-MDDC by flow cytometry. The class given is cell-based, human. Particulars: 40 hrs after siRNA transfection, FIG. 2. The method, then: Flow cytometric analysis: Cell surface expression of DCIR was monitored by flow cytometric analysis with a flow cytometry apparatus (Epics ELITE ESP, Coulter Electronics, Burlington, ON). Before staining, cells were incubated for 15 min at 4° C. with 10% pooled human sera to block non-specific binding sites and washed once with phosphate buffered saline (PBS) supplemented with 0.5% bovine serum albumin (BSA). Next, cells were incubated for 45 min at 4° C. with anti-DCIR (0.25 μg) monoclonal Ab and then washed twice with PBS and 0.5% BSA. Non-specific staining was determined by using an isotype-matched irrelevant control Ab. After two final washes with PBS, cells were fixed in 2% paraformaldehyde and analyzed.
Gene silencing of DCIR with siRNAs: Small interfering RNAs (siRNAs) either specific (i.e. 5′-ATTTAGGTGGTCTGTCA-3′; [SEQ ID NO:11]) or non-specific for DCIR (i.e. 5′-[…]-3′; [SEQ ID NO:45]) were obtained from Qiagen and dissolved in an appropriate buffer. The studied siRNAs were subsequently tested in IM-MDDC as previously described 2. Control cells were treated with either Oligofectamine alone or Oligofectamine and non-specific siRNAs. […] The efficiency of DCIR silencing with the tested siRNA was monitored by flow cytometry.
We thus employed RNA interference to reduce DCIR expression in IM-MDDC and analyzed the possible effect on HIV-1 transfer. […]
For orientation: In flow cytometry, cells or beads pass a laser one at a time.

Regarding “DCIR-specific siRNA: siRNA specific for DCIR, 5′-ATTTAGGTGGTCTGTCA-3′ [SEQ ID NO:11], obtained from Qiagen (chemistry not given here)”, in the data set on DC-SIGN, the DC-SIGN expression entry is “not affected”. In addition, the cells viability entry in the data set on IM-MDDC is “minimally affected”. In the data set with HIV-1 (NL4-3balenv) [1], the “de novo virus production in IM-MDDC (p24)” value is recorded as “decrease”. Besides, in the data set on HIV-1 (NL4-3balenv) [2] (cells treated with EFV (50 μM), NL4-3balenv 20 ng p24, co-culture day 2, FIG. 4A), the “reduction in virus transfer (average diminution)” value was 40%. Moreover, in the data set on HIV-1 (NL4-3balenv) [2] (in absence of EFV, NL4-3balenv 20 ng p24, co-culture day 2, FIG. 4A), the “reduction in virus transfer (average decrease)” value amounted to 30%. For the same compound, the “transfer of HIV-1 from IM-MDDC to autologous CD4+ T cells (p24 content)” value in the data set with HIV-1 (NL4-3balenv) [2] (siRNA-transfected IM-MDDC pulsed with NL4-3balenv 10 ng p24 for 60 min, co-culture 1:3, day 2, FIG. 3) is on record as “reduced significantly”. For the same compound, in the data set with DCIR, the “decrease in surface expression of DCIR in IM-MDDC” value is reported as approximately 30%.
Take `O=C1Nc2ccc(Cl)cc2[C@@](C#CC2CC2)(C(F)(F)F)O1` [EFV, efavirenz, reference compound]: the “effect on HIV-1 propagation (virus transfer)” value with HIV-1 (NL4-3balenv) [2] (EFV 50 μM added to IM-MDDC, FIG. 4A) is reported as “limited effect”.
